Where two headings read alike, the source gives them in different places.
Experiments:
hERG channel = hERG channel (Homo sapiens (Human), UniProt Q12809); assay: hERG manual patch clamp test; assay type: cell-based
Experimental: The cells used in this test were the HEK293 cell line transfected with hERG cDNA and stably expressing the hERG channel (#60187, supplied by BPS, passages P3-P23 for experimental studies). The cells were cultured in a medium containing the following components: MEM medium containing 10% (v/v) inactivated fetal calf serum, 1 mM sodium pyruvate, 500 μg/ml geneticin, 0.1 mM non-essential amino acids, and 100 U/m1 penicillin/streptomycin. HEK293 hERG cells were grown in a culture dish containing the above-mentioned medium, cultured in a 37° C., 5% CO2 incubator, and passaged approximately three times per week, with the cell fusion rate between 40% and 80%. 24 to 48 hours prior to electrophysiological experiments, HEK293 hERG cells were transferred to 0.05 mg/ml PDL-pretreated slides, seeded at a density of 1×10^4 cells per well in a 48-well plate, and grown in the same medium and under the same culture conditions. The density of HEK293 hERG cells on each circular slide needs to reach the requirement that most cells are independent and individual. The extracellular fluid components used in the hERG assay were as follows (mM): 145 NaCl, 4 KCl, 2 CaCl2, 1 MgCl2, 10 glucose, and 10 HEPES (pH adjusted to 7.40 with NaOH). The intracellular fluid components were as follows (mM): 130 KCl, 2 MgCl2, 5 EGTA, 10 HEPES and 5 Na2ATP (pH adjusted to 7.25 with KOH). […] Prior to the experiment, the compound was first serially diluted with DMSO to prepare stock solutions at 10, 3, 1, 0.3, and 0.1 mM, which were then further diluted with extracellular fluid to achieve the final test concentrations (in μM). The final concentration of DMSO in compound solutions at various concentrations was between 0.1% and 0.3%. All compound solutions are routinely sonicated for 5 to 10 min and shaken sufficiently to ensure complete dissolution of the compound, and all test solutions are mixed well by rotation for at least 10 min.
Electrophysiological tests were performed using a manual patch clamp system (HEKA EPC-10 signal amplifier and digital conversion system, HEKA Electronics, Germany) for the recording of whole cell currents. The specific test method was described as follows: Circular slides with […] hERG cells growing on the surface were placed in an electrophysiological recording chamber under an inverted microscope. The recording chamber was continuously perfused with extracellular fluid (at approximately 1 mL/min). The conventional whole-cell patch-clamp technique was employed for current recordings throughout the experiment. If not specified, the experiments were carried out at normal room temperature (about 25° C.). The cells were clamped at −80 mV. The cell clamp voltage was depolarized to +30 mV to activate the hERG potassium channel, and then clamped to −50 mV after 5 seconds to eliminate inactivation and produce a tail current. The peak tail current value was used as a value for the magnitude of the hERG current. The potassium current of hERG recorded in the above steps was stabilized by continuous extracellular fluid perfusion in the recording chamber, and the drug to be tested was continuously perfused until the inhibitory effect of the drug on hERG currents had stabilized. The coincidence of the most recent three consecutive current recording traces was typically taken as the criteria for determining whether steady-state conditions were achieved.
Dose-response curves of the test compounds were plotted with % hERG inhibition rate as the y-axis and test compound concentration as the x-axis, to calculate the IC50 values.

OVCAR3 tumor = assay: OVCAR3 human ovarian cancer subcutaneous transplant tumor model; assay type: in vivo, mouse; conditions: oral, QD, 28 days, balb/c nude mice
Source text: • I. Experimental objective: evaluation of the pharmacological effects of the reference compounds and the compounds of the present disclosure in the OVCAR3 human ovarian cancer subcutaneous transplant tumor model. • II. Experimental material: experimental female balb/c nude mice, 6-8-week old or 18-20 g, provided by Vital River Laboratory Animal Technology Co., Ltd. • III. Experimental method: Experimental animals were housed within a specific pathogen-free animal barrier facility, and the experiment was started 3 days after the animals were acclimated. The human ovarian cancer OVCAR3 tumor cells were cultured in vitro as monolayers in RPMI 1640 complete medium (supplemented with a final concentration of 20% fetal bovine serum, 1% penicillin-streptomycin dual antibiotics, and 0.01 mg/ml insulin) at 37° C. in an atmosphere containing 5% CO2. The tumor cells were routinely passaged 2-3 times per week, and the cells in the exponential growth phase were collected and counted for tumor cell inoculation. 10×10^6 OVCAR3 tumor cells were resuspended in 0.1 m1 PBS and mixed with 0.1 m1 matrigel and then subcutaneously inoculated into the right flank of each mouse to establish tumors. When the mean tumor volume of the tumor-bearing mice grew to around 100 mm^3, the appropriate tumor-bearing mice were selected for randomization and the groups were set as: blank control groups, reference compound groups, and groups of compounds of the present disclosure. Vehicles were administered orally in the blank control group, and the corresponding compounds were administered orally in the other groups for 28 days. Tumor volumes and animal weights were monitored […], twice weekly. This experiment examined the inhibitory effect of the reference compound and the compound of the present disclosure on the growth of OVCAR3 human ovarian cancer cells by monitoring the size of the tumor volume of each group after administration of the compounds.

[1] = HEK293 cells stably expressing hERG, whole-cell patch clamp, read-out: hERG IC50

hERG channel, sequence (Q12809 whole entry, the tested form may be a part): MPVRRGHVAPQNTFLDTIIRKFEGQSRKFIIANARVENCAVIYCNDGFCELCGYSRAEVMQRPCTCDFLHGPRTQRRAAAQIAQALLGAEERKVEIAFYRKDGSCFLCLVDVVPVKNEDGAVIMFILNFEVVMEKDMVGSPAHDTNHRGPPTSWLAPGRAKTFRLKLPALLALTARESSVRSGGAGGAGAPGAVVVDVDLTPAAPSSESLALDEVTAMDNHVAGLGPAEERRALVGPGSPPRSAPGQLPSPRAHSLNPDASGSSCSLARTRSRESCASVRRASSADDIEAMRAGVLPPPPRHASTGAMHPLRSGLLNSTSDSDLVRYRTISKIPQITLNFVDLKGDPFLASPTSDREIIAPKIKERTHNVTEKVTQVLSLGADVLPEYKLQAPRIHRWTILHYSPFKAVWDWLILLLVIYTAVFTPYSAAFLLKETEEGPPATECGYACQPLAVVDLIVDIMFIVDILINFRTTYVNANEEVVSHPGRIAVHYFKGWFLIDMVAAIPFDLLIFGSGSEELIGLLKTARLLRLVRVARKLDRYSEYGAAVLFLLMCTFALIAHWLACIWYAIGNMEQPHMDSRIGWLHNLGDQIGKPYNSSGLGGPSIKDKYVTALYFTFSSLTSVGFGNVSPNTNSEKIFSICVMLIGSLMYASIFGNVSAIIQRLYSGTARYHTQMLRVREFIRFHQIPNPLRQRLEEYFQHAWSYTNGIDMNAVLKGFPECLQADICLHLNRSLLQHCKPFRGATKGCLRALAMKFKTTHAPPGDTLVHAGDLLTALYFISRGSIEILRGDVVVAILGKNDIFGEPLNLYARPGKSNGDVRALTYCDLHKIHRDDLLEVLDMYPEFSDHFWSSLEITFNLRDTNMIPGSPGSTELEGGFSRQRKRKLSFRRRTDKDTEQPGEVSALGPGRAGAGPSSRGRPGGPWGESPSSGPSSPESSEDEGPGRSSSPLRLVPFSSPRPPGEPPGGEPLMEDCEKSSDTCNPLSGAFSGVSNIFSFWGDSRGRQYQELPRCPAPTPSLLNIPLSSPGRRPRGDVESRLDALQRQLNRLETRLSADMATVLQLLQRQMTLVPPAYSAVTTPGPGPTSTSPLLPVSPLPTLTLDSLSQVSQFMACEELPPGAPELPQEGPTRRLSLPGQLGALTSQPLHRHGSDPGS

Compound: O=C(Nc1cccc2c1cc1n2CCOC1)c1ccc(NS(=O)(=O)CCO)cc1N1CCC2(CC1)CC2 [Example 235, N-(3,4-dihydro-1H-[1, 4]oxazino[4,3-a]indol-9-yl)-4-(2-hydroxyethylsulfonamido)-2-(6-azaspiro[2.5]octan-6-yl)benzamide]
- IC50 (hERG channel; [1]): 9.84 µM

Compound: O=C(Nc1cccc2c1cc1n2CCOC1)c1ccc(NS(=O)(=O)CCO)cc1N1CCC(=C(F)F)CC1 [Example 319, 2-(4-difluoromethylene)piperidin-1-yl-N-(3,4-dihydro-1H-[1,4]oxazino[4,3-a]indol-9-yl)-4-((2-hydroxyethyl)sulfonamide) benzamide]
- IC50 (hERG channel; [1]): > 10 µM

Compound: CC1(C)Cn2c(cc3c(NC(=O)c4ccc(NS(=O)(=O)CCO)cc4N4CCC(=C(F)F)CC4)cccc32)CO1 [Example 370, 2-(4-(difluoromethylene)piperidin-1-yl)-N-(3,3-dimethyl-3,4-dihydro-1H-[1,4]oxazino[4,3-a]indol-9-yl)-4-((2-hydroxyethyl)sulfonamido)benzamide]
- IC50 (hERG channel; [1]): > 10 µM

Compound: CC1(C)Cn2c(cc3c(NC(=O)c4ccc(NS(=O)(=O)CCO)cc4N4CCC5(CC4)CC5)cccc32)CO1 [Example 371, N-(3,3-dimethyl-3,4-dihydro-1H-[1,4]oxazino[4,3-a]indol-9-yl)-4-(2-hydroxyethylsulfonamido)-2-(6-azaspiro[2.5]octan-6-yl)benzamide]
- IC50 (hERG channel; [1]): > 10 µM
- inhibition rate on OVCAR3 tumor growth (OVCAR3 tumor; 10 mg/kg): 94%-98%
- inhibition rate on OVCAR3 tumor growth (OVCAR3 tumor; 30 mg/kg): about 110%

Compound: COc1ccc(NC(=O)c2ccc(NS(=O)(=O)CCO)cc2N2CCC3(CC2)CC3)c2cc3n(c12)CC(C)(C)OC3 [Example 455, 4-((2-hydroxyethyl)sulfonamido)-N-(6-methoxy-3,3-dimethyl-3,4-dihydro-1H-[1,4]oxazinyl[4,3-a]indol-9-yl)-2-(6-azaspiro[2.5]oct-6-yl)benzamide]
- IC50 (hERG channel): > 10 µM
- inhibition rate on OVCAR3 tumor growth (OVCAR3 tumor; 10 mg/kg): 94%-98%

Compound: COc1ccc(NC(=O)c2ccc(NS(=O)(=O)CCO)cc2N2CCC(=C(F)F)CC2)c2cc3n(c12)CC(C)(C)OC3 [Example 465, 2-(4-(difluoromethylene)piperidin-1-yl)-4-((2-hydroxyethyl)sulfonamido)-N-(6-methoxy-3,3-dimethyl-3,4-dihydro-1H-[1,4]oxazinyl[4,3-a]indol-9-yl)benzamide]
- IC50 (hERG channel; [1]): > 10 µM
- inhibition rate on OVCAR3 tumor growth (OVCAR3 tumor; 10 mg/kg): 60%-70%

Compound: CC1(C)Cn2c(cc3c(NC(=O)c4ccc(NS(=O)(=O)CCO)cc4N4CCC5(CC4)CC5)ccc(OC(F)F)c32)CO1 [Example 523]
- IC50 (hERG channel; [1]): > 10 µM

— patent US20260070887A1 (Shenzhen Zhongge Biological Technology Co., Ltd., priority 2022, published 2026)
